Measured values reported in patent US10689354B2, “Aminoazole derivative” (Teijin Pharma Limited, priority 2015, dated 2020).

Experiments:
[1] = target: T1, androgen receptor (AR-LBD) (Rattus norvegicus, UniProt P15207); test: Evaluation of androgen receptor affinity (PolarScreen Androgen Receptor Competitor Assay Kit, Red; fluorescence polarization); conditions: 22° C. for 5 hours, relative to binding rate of 1 μM DHT, read-out: AR affinity (pEC50) (converted)
T1 construct: 5 μL of 2×AR-LBD/Fluoromone AL Red Complex contained in the kit; purchased Invitrogen
T1 sequence (P15207 651-882 limits assumed): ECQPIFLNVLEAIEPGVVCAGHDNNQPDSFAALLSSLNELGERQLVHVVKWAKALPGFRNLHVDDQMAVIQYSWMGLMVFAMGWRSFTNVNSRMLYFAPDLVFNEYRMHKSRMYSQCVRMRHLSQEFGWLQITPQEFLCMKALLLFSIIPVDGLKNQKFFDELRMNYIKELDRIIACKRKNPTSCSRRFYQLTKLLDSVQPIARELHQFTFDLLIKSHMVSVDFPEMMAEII
In short: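 FP competition: compound + AR-LBD/Fluoromone AL Red tracer complex, 22° C, 5 h. Reference 1 μM DHT binding rate; pEC50 by 4-parameter fit.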

human androgen receptor = target: T2, human androgen receptor (Homo sapiens, UniProt P10275); test: Reporter assay of an androgen receptor responsive sequence (luciferase, transiently transfected HEK293 cells); type: cell-based; conditions: 24 hours incubation, relative to activity of 100 nM DHT, read-out: AR transcriptive activity (pEC50) (converted)
T2 construct: expressed in transfected cells; host or cells: HEK293
T2 sequence (P10275 1-920): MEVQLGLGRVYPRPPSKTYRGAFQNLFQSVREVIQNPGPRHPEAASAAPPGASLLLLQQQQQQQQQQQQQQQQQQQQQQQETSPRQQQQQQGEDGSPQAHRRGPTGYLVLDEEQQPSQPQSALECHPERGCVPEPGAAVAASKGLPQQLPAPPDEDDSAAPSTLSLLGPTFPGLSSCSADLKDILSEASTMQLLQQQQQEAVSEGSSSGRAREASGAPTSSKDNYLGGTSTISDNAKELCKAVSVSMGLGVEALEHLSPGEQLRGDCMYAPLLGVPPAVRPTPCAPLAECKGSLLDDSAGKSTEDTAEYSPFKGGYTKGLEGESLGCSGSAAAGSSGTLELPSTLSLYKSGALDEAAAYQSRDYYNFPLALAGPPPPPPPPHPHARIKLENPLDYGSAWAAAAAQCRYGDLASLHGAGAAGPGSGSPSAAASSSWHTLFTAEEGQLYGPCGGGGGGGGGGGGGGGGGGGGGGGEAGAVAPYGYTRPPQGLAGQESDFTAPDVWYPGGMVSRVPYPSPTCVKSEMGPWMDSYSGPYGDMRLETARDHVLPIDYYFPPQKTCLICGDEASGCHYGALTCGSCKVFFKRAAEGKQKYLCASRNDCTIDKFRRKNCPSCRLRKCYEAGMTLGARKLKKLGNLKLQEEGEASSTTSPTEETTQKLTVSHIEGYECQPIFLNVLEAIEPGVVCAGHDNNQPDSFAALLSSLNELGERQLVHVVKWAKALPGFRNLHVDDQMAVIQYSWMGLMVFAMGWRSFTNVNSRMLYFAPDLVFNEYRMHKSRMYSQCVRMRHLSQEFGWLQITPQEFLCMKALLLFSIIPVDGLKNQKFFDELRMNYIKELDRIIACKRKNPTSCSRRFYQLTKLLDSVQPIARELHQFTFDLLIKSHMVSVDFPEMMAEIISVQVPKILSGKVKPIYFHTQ
In short: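 Agonism scored as pEC50, fitted by 4-parameter curve against the response to 100 nM DHT, from dual-luciferase readout after 24 h compound treatment. Cells were HEK293 co-transfected (3 h) with human AR expression vector, androgen-responsive firefly reporter and Renilla control, in charcoal-stripped serum.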

EC50 [1] [nM]	EC50 (human androgen receptor) [nM]	Structure (SMILES)
398	> 10000	Cc1sc(N(CCC(C)(C)C)c2ccc(C#N)cc2)nc1C(=O)NS(C)(=O)=O [Compound 90, 2-[4-cyano-N-(3,3-dimethylbutyl)anilino]-5-methyl-N-methylsulfonyl-thiazole-4-carboxamide]
126	> 10000	Cc1sc(N(Cc2ccccc2)c2ccc(C#N)cc2)nc1C(=O)NS(=O)(=O)Cc1cccc(Cl)c1 [Compound 386, 2-(N-benzyl-4-cyano-anilino)-N-[(3-chlorophenyl)methylsulfonyl]-5-methyl-thiazole-4-carboxamide]
25.1	794	Cc1sc(N(Cc2csc(COc3ccccc3)n2)c2ccc(C#N)cc2)nc1C(=O)NS(C)(=O)=O [Compound 465, 2-[4-cyano-N-[[2-(phenoxymethyl)thiazol-4-yl]methyl]anilino]-5-methyl-N-methylsulfonyl-thiazole-4-carboxamide]
25.1	50.1	Cc1sc(N(Cc2cccc(Cl)c2)c2ccc(C#N)cc2)nc1C(=O)NS(C)(=O)=O [Compound 18, 2-[N-[(3-chlorophenyl)methyl]-4-cyano-anilino]-5-methyl-N-methylsulfonyl-thiazole-4-carboxamide]
50.1	63.1	CS(=O)(=O)NC(=O)c1nc(N(Cc2cccc(F)c2)c2ccc(C#N)cc2)sc1Br [Example 243, 5-bromo-2-[4-cyano-N-[(3-fluorophenyl)methyl]anilino]-N-methylsulfonyl-thiazole-4-carboxamide]
158	316	Cc1sc(N(Cc2cc(F)ccc2F)c2ccc(C#N)cc2)nc1C(=O)NS(C)(=O)=O [Compound 103, 2-[4-cyano-N-[(2,5-difluorophenyl)methyl]anilino]-5-methyl-N-methylsulfonyl-thiazole-4-carboxamide]
39.8	25.1	CS(=O)(=O)NC(=O)c1nc(N(Cc2ccc(C(F)(F)F)cc2)c2ccc(C#N)cc2)sc1Br [Example 251, 5-bromo-2-[4-cyano-N-[[4-(trifluoromethyl)phenyl]methyl]anilino]-N-methylsulfonyl-thiazole-4-carboxamide]
316	3980	Cc1sc(N(Cc2ccc(-c3ccc(F)cn3)nc2)c2ccc(C#N)cc2)nc1C(=O)NS(C)(=O)=O [Compound 596, 2-[4-cyano-N-[[6-(5-fluoro-2-pyridyl)-3-pyridyl]methyl]anilino]-5-methyl-N-methylsulfonyl-thiazole-4-carboxamide]
501	1000	Cc1sc(N(Cc2ncc(F)cc2F)c2ccc(C#N)cc2)nc1C(=O)NS(C)(=O)=O [Compound 527, 2-[4-cyano-N-[(3,5-difluoro-2-pyridyl)methyl]anilino]-5-methyl-N-methylsulfonyl-thiazole-4-carboxamide]
79.4	100	Cc1sc(N(Cc2cc(F)cc(F)c2)c2ccc(C#N)cc2)nc1C(=O)NS(C)(=O)=O [Compound 96, 2-[4-cyano-N-[(3,5-difluorophenyl)methyl]anilino]-5-methyl-N-methylsulfonyl-thiazole-4-carboxamide]
158	> 10000	CCc1oc(N(Cc2ccccc2OC(F)F)c2ccc(C#N)cc2)nc1C(=O)NS(C)(=O)=O [Compound 637, 2-[4-cyano-N-[[2-(difluoromethoxy)phenyl]methyl]anilino]-5-ethyl-N-methylsulfonyl-oxazole-4-carboxamide]
200	501	Cc1sc(N(CCn2cc(C#N)cn2)Cc2ccc(Cl)cc2)nc1C(=O)NS(C)(=O)=O [Compound 736, 2-[(4-chlorophenyl)methyl-[2-(4-cyanopyrazol-1-yl)ethyl]amino]-5-methyl-N-methylsulfonyl-thiazole-4-carboxamide]
25.1	100	Cc1sc(N(CCc2ccc(F)c(F)c2)Cc2ccccc2)nc1C(=O)NS(C)(=O)=O [Compound 148, 2-[benzyl-[2-(3,4-difluorophenyl)ethyl]amino]-5-methyl-N-methylsulfonyl-thiazole-4-carboxamide]
15.8	63.1	COCCCS(=O)(=O)NC(=O)c1nc(N(Cc2ccc(Cl)c(Cl)c2)c2ccc(C#N)cc2)sc1C [Example 190, 2-[4-cyano-N-[(3,4-dichlorophenyl)methyl]anilino]-N-(3-methoxypropylsulfonyl)-5-methyl-thiazole-4-carboxamide]
> 2000	> 10000	Cc1sc(N(CCc2cccnc2)Cc2ccc(Cl)cc2)nc1C(=O)NS(C)(=O)=O [Compound 488, 2-[(4-chlorophenyl)methyl-[2-(3-pyridyl)ethyl]amino]-5-methyl-N-methylsulfonyl-thiazole-4-carboxamide]
501	> 10000	Cc1sc(N(CCC2CCCCC2)Cc2ccc(Cl)cc2)nc1C(=O)NS(=O)(=O)C(F)(F)F [Compound 723, 2-[(4-chlorophenyl)methyl-(2-cyclohexylethyl)amino]-5-methyl-N-(trifluoromethylsulfonyl)thiazole-4-carboxamide]
50.1	50.1	CS(=O)(=O)NC(=O)c1nc(N(Cc2ccc(OC(F)F)cc2)c2ccc(C#N)cc2)sc1Br [Example 256, 5-bromo-2-[4-cyano-N-[[4-(difluoromethoxy)phenyl]methyl]anilino]-N-methylsulfonyl-thiazole-4-carboxamide]
25.1	251	Cc1sc(N(CCc2ccc(C#N)cc2)Cc2ccc(OC(F)(F)F)cc2)nc1C(=O)NS(C)(=O)=O [Compound 323, 2-[2-(4-cyanophenyl)ethyl-[[4-(trifluoromethoxy)phenyl]methyl]amino]-5-methyl-N-methylsulfonyl-thiazole-4-carboxamide]
79.4	1580	COCCCS(=O)(=O)NC(=O)c1nc(N(CCc2ccc(OC(F)(F)F)cc2)Cc2nc(C3CC3)no2)oc1C [Compound 563, 2-[(3-cyclopropyl-1,2,4-oxadiazol-5-yl)methyl-[2-[4-(trifluoromethoxy)phenyl]ethyl]amino]-N-(3-methoxypropylsulfonyl)-5-methyl-oxazole-4-carboxamide]
158	316	Cc1sc(N(CC[C@@H]2CCCC[C@H]2O)c2ccc(C#N)cc2)nc1C(=O)NS(C)(=O)=O (racemic) [Compound 410, 2-[4-cyano-N-[2-[trans-2-hydroxycyclohexyl]ethyl]anilino]-5-methyl-N-methylsulfonyl-thiazole-4-carboxamide]
126	1000	Cc1sc(N(Cc2ccc(C#N)cc2)c2ccc(C#N)cc2)nc1C(=O)NS(C)(=O)=O [Compound 10, 2-[4-cyano-N-[(4-cyanophenyl)methyl]anilino]-5-methyl-N-methylsulfonyl-thiazole-4-carboxamide]
63.1	100	CS(=O)(=O)NC(=O)c1nc(N(Cc2ccccc2F)c2ccc(C#N)cc2)sc1Br [Example 242, 5-bromo-2-[4-cyano-N-[(2-fluorophenyl)methyl]anilino]-N-methylsulfonyl-thiazole-4-carboxamide]
126	158	Cc1sc(N(Cc2ccc(C(F)(F)F)cn2)c2ccc(C#N)cc2)nc1C(=O)NS(C)(=O)=O [Compound 514, 2-[4-cyano-N-[[5-(trifluoromethyl)-2-pyridyl]methyl]anilino]-5-methyl-N-methylsulfonyl-thiazole-4-carboxamide]

Structure (SMILES)	EC50 [1] [nM]	EC50 (human androgen receptor) [nM]
Cc1sc(N(Cc2cccc(OCC(C)C)c2)c2ccc(C#N)cc2)nc1C(=O)NS(C)(=O)=O [Compound 586, 2-[4-cyano-N-[(3-isobutoxyphenyl)methyl]anilino]-5-methyl-N-methylsulfonyl-thiazole-4-carboxamide]	79.4	7940
